This note sets out measurements from paper PMC8494917 (2021).

Assay [1] concerns Bs-preQ1-RS (RNA, riboswitch) AGAGGUUCUAGCUACACCCUCUAUAAAAAACUAA
Nature of the assay: UV photocrosslinking, denaturing PAGE. Particulars: 100 mM K+, 2 mM Mg2+, 50 mM Tris pH 7.5, 5% DMSO, room temperature, 5 µM RNA, 250 µM compound, covalent.

Assay [2] concerns Ss-preQ1-RS (RNA, riboswitch) AGAGGUUCCUAGCUGAUACCCUCUAUAAAAAACUA
Nature of the assay: UV photocrosslinking, denaturing PAGE. Particulars: 100 mM K+, 2 mM Mg2+; 50 mM Tris pH 7.5, room temperature; 5 µM RNA, 25-250 µM compound; covalent.

Assay [3] deals with Bs-preQ1-RS full length (RNA, riboswitch) GCGGGAGAGGUUCUAGCUACACCCUCUAUAAAAAACUAGGACGAGCUGUAUCCUUGGAUACGGCCUUUU
Nature of the assay: UV photocrosslinking, TAMRA click labelling, PAGE. Conditions: 100 mM K+, 2 mM Mg2+; 50 mM Tris pH 7.5, 5% DMSO; 1 µM RNA, 250 µM compound; covalent.

Assay [4] concerns miR21-hp (RNA, miRNA) GGGUUGACUGUUGAAUCUCAUGGCAACCC
The assay can be described thus: UV photocrosslinking, denaturing PAGE. Conditions: 100 mM K+, 2 mM Mg2+; 50 mM Tris pH 7.5; 50:1 compound:RNA; covalent crosslink not detected.

The subject of assay [5] is Tt-preQ1-RS(G5A) (RNA, riboswitch) CUGGAUCGCAGUAACCCCAGUUAACAAAACAAG
Nature of the assay: UV photocrosslinking, denaturing PAGE. Conditions: 100 mM K+, 2 mM Mg2+; 50 mM Tris pH 7.5; 10 µM RNA, 500 µM compound; covalent; similar to wild type.

For assay [6], the system named is SAM-II-WT-RS (RNA, riboswitch) UCGCGCUGAUUUAACCGUAUUGCAAGCGCGUGAUAAAUGUAGCUAAAAAGGG
The assay can be described thus: UV photocrosslinking, denaturing PAGE. Conditions: 100 mM K+, 2 mM Mg2+; 50 mM Tris pH 7.5; 50:1 compound:RNA; covalent crosslink not detected.

Assay [7] deals with Tt-preQ1-RS(G4A) (RNA, riboswitch) CUGAGUCGCAGUAACCCCAGUUAACAAAACAAG
Nature of the assay: UV photocrosslinking, denaturing PAGE. Particulars: 100 mM K+, 2 mM Mg2+; 50 mM Tris pH 7.5; 10 µM RNA, 500 µM compound; covalent; about 40% less than wild type.

The subject of assay [8] is Tt-preQ1-RS (ab 13_14) (RNA, riboswitch, abasic at 13 and 14) CUGGGUCGCAGUNNCCCCAGUUAACAAAACAAG
The assay can be described thus: X-ray crystallography, 1.57 Å. Conditions: without photocrosslinking.

For assay [9], the system named is Cy5-Bs-preQ1-RS (RNA, riboswitch) AGAGGUUCUAGCUACACCCUCUAUAAAAAACUAA
The assay can be described thus: microscale thermophoresis. Conditions: 100 mM K+, 2 mM Mg2+, 50 mM Tris-HCl pH 7.5, 5% DMSO, room temperature, 100 nM RNA. For orientation: MST reads how a fluorescent partner responds to local heating, with and without ligand.

Assay [10] relates to Cy5-Tt-preQ1-RS (RNA, riboswitch) CUGGGUCGCAGUAACCCCAGUUAACAAAACAAG
Nature of the assay: microscale thermophoresis. Conditions: 100 mM K+, 2 mM Mg2+, 50 mM Tris-HCl pH 7.5, 5% DMSO, room temperature, 100 nM RNA.

The subject of assay [11] is Tt-preQ1-RS (RNA, riboswitch) CUGGGUCGCAGUAACCCCAGUUAACAAAACAAG
The assay can be described thus: X-ray crystallography, 2.80 Å. Particulars: without photocrosslinking.

Assay [12] concerns Tt-preQ1-RS(G11A) (RNA, riboswitch) CUGGGUCGCAAUAACCCCAGUUAACAAAACAAG
The assay can be described thus: UV photocrosslinking, denaturing PAGE. Particulars: 100 mM K+, 2 mM Mg2+; 50 mM Tris pH 7.5; 10 µM RNA, 500 µM compound; covalent; similar to wild type.

The subject of assay [13] is Ss-preQ1-RS (RNA, riboswitch) AGAGGUUCCUAGCUGAUACCCUCUAUAAAAAACUA
The assay can be described thus: competition of photocrosslinking, PAGE. Conditions: 100 mM K+, 2 mM Mg2+; 50 mM Tris pH 7.5; probe 11 (250 µM) displaced by 125-1250 µM PreQ1.

For assay [14], the system named is Bs-preQ1-RS full length (RNA, riboswitch) GCGGGAGAGGUUCUAGCUACACCCUCUAUAAAAAACUAGGACGAGCUGUAUCCUUGGAUACGGCCUUUU
Nature of the assay: competition of photocrosslinking, TAMRA click labelling, PAGE. Particulars: 100 mM K+, 2 mM Mg2+; probe 11 (250 µM) displaced by 500-1000 µM PreQ1, in MCF-7 total RNA.

The test system of assay [15] is Ss-preQ1-RS (RNA, riboswitch) AGAGGUUCCUAGCUGAUACCCUCUAUAAAAAACUA
The assay can be described thus: UV photocrosslinking, MALDI-TOF. Particulars: 100 mM K+, 2 mM Mg2+; 10 µM RNA, 500 µM compound; covalent.

For the compound `C#CCCC1(CCC(=O)NCc2c[nH]c3nc(N)[nH]c(=O)c23)N=N1`, in assay [1], the “% Crosslink efficiency” value came out at 39.9 ± 5.3%.
For the compound `C#CCCC1(CCNCc2c[nH]c3nc(N)[nH]c(=O)c23)N=N1`, the binding result is “yes” in assay [2]; “yes” in assay [3]; “no” in assay [4]; “yes” in assay [5]; “no” in [6]; “yes” in assay [7]. Further, the binding entry in [8], in assay [11] and in assay [12] was “yes” throughout. For the same compound, the apparent dissociation constant in assay [9] (about 50 x K of PreQ1) is 8.25 ± 2.56 µM; in [10] (about 50 x K of PreQ1), 11.03 ± 2.98 µM. For the same compound, the “% Crosslink efficiency” value in [1] was 31.3 ± 2.9%.
In the case of `CC1(CCC(=O)NCc2c[nH]c3nc(N)[nH]c(=O)c23)N=N1`, the “% Crosslink efficiency” value in assay [1] is 49.2 ± 3.2%.
On to `NCc1c[nH]c2nc(N)[nH]c(=O)c12`, for which the binding entry in assay [13] and in assay [14] was “yes” in each case. Moreover, the apparent dissociation constant in assay [9] stood at 0.243 ± 0.01639 µM; in assay [10], 0.193 ± 0.04523 µM.
As for `Nc1nc2[nH]cc(CNCCC3(CCc4cn(CCOCCOCCOCCNC(=O)CCCC[C@@H]5SC[C@@H]6NC(=O)N[C@@H]65)nn4)N=N3)c2c(=O)[nH]1`, the binding entry in assay [15] is listed as “yes”.
`Nc1nc2[nH]cc(CNCCOCCOCCNCc3ccc(C4(C(F)(F)F)N=N4)cc3)c2c(=O)[nH]1`: in assay [1], the “% Crosslink efficiency” value stood at 22.0 ± 2.2%.
On the same count and under the same terms, under `Nc1nc2[nH]cc(CNCCOCCOCCOCCNCc3ccc(C4(C(F)(F)F)N=N4)cc3)c2c(=O)[nH]1` stands 19.4 ± 4.4%.
In the case of `Nc1nc2[nH]cc(CNCc3ccc(C4(C(F)(F)F)N=N4)cc3)c2c(=O)[nH]1`, in [1] (trace only), the binding result is recorded as “weak”.
